Results published in patent US20260137671A1, “PDK4 as a Cell-Aging Intervention Target and Its Use in Chemotherapy and Anticancer” (Shanghai Institute of Nutrition and Health, Chinese Academy …, priority 2022, published 2026).

Test system: MDA-MB-231 breast cancer cells xenografted together with HBF1203 breast stromal cells
Test: MDA-MB-231/HBF1203 xenograft, tumor end volume after chemotherapy and/or PDK4-IN
Format: in vivo, SCID mice
Conditions: PDK4-IN 10.0 mg/kg combined with DOX 1.0 mg/kg i.p.
Procedure: All experimental mouse experiments were carried out in strict accordance with the relevant regulations of the Institutional Animal Care and Use Committee (IACUC), Shanghai Institutes for Biological Sciences, Chinese Academy of Sciences. Immuno-deficient mice ICR SCID mice (body weight about 25 g) aged about 6 weeks were used for animal experiments related to the present disclosure. Stromal cells PSC27 and epithelial cells were mixed at a ratio of 1:4, and each graft contained 1.25×10^6 cells for tissue remodeling. The xenograft tumors were implanted into mice by subcutaneous transplantation, and the animals were euthanized 8 weeks after the end of the transplantation surgery. Tumor volume was calculated according to the following formula: V=(π/6)×(([…])/2)^3 (V, volume; 1, length; w, width).
For pre-clinical chemotherapeutic studies, mice received subcutaneous implantation were given standard laboratory diets. […] The time points were on the first day of the third, fifth and seventh weeks, with a total of 3 cycles of treatment, and each cycle lasted for 2 weeks. After the course of treatment, mouse […] were collected for tumor measurement and histological analysis. […] In order to cause systemic expression of SASP factors induced by chemotherapy, MIT was administered to mice through intravenous infusion according to the above steps and sequence, but the dose was reduced to 0.1 mg/kg body weight/each time (the cumulative dose of MIT received in the whole course of treatment was 0.3 mg/kg body weight) to reduce drug-related toxicity. The chemotherapy experiment ended at the end of the 8th week, and the mice were dissected immediately after sacrifice, and the xenograft tumors were collected and used for pathological system analysis.
To assess the in vivo effects of chemotherapeutic drugs and/or PDK4-IN treatment in different tumor types, the inventors subsequently generated xenografts composed of breast cancer cell line MDA-MB-231 and breast stromal cell line HBF1203 to replicate the preclinical intervention observed in prostate cancer xenografts.

## O=C1c2ccccc2C(=O)c2c1cccc2-c1cnn(C2CCNCC2)c1 [PDK4-IN]
  further decline of tumor volume on the basis of doxorubicin (DOX): 39.8%
  tumor size reduction in total compared to the control group: 69.5%
